Source: patent publication US20230077362A1 (CORTEVA AGRISCIENCE LLC, priority 2019, published 2023)
Where two headings read alike, the source gives them in different places.

Legend:
[1] = test system: Cabbage Looper (Trichoplusia ni) ("CL"), second instar larvae; assay: Bioassay on cabbage looper (CL), 128-well diet tray assay; assay type: in vivo; settings: for CL rating: C = not tested, D = no activity noticed
Method in brief: (§1)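 Mortality (%) is scored well by well after five to seven days at 25° C. on a 14:10 light:dark regime. The value given is the mean of eight wells.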

[2] = test system: Beet Armyworm (Spodoptera exigua) ("BAW"), second instar larvae; assay: Bioassay on beet armyworm (BAW), 128-well diet tray assay; assay type: in vivo; settings: for pest or weed control at 50 µg/cm2: Spodoptera exigua; for BAW rating: C = not tested, D = no activity noticed
Method in brief: as §1

[3] = Trichoplusia ni, read-out: CL rating
[4] = Trichoplusia ni, read-out: CL (Biological Results, rating)
[5] = read-out: BAW (Biological Results, rating)

Compound	pest or weed control at 50 µg/cm2 [1, 3]	pest or weed control at 50 µg/cm2 ([2]; read-out: BAW rating)	pest or weed control at 50 µg/cm2 [1, 4]	pest or weed control at 50 µg/cm2 [2, 5]	further results
COCc1ccc(N(C)C)cc1N1C(=O)CS/C1=N\C(=O)Nc1ccc(-c2cn(-c3ccc(S(F)(F)(F)(F)F)cc3)cn2)cc1F [Compound J601, (Z)-1-(3-(5-(Dimethylamino)-2-(methoxymethyl)phenyl)-4-oxothiazolidin-2-ylidene)-3-(2-fluoro-4-(1-(4-(pentafluoro-λ^6-sulfaneyl)phenyl)-1H-imidazol-4-yl)phenyl)urea]	50 to 100%	50 to 100%	–	–	–
(Z)-1-(3-(5-(Dimethylamino)-2-isopropylphenyl)-4-oxothiazolidin-2-ylidene)-3-(2-fluoro-4-(1-(6-(trifluoromethyl)pyridazin-3-yl))-1H-1,2,4-triazol-3-yl)phenyl)urea [Compound J393]	–	–	–	–	CL rating ([1]; Table ABC, species CL): A (50-100); BAW rating ([2]; Table ABC, species BAW): A (50-100)
CCOCc1ccc(C)cc1N1C(=O)CS/C1=N\C(=O)Nc1ccc(-c2ncn(-c3ccc(OC)cc3)n2)cc1F [Compound J755, (Z)-1-(3-(2-(Ethoxymethyl)-5-methylphenyl)-4-oxothiazolidin-2-ylidene)-3-(2-fluoro-4-(1-(4-methoxyphenyl)-1H-1,2,4-triazol-3-yl)phenyl)urea]	50 to 100%	50 to 100%	–	–	–
COC(C)c1ccc(C)cc1N1C(=O)CS/C1=N\C(=O)Nc1ccc(-c2ncn(-c3ccc(OC(F)(F)F)cn3)n2)cc1Cl (stereo not shown) [Compound J250, (Z)-1-(2-Chloro-4-(1-(5-(trifluoromethoxy)pyridin-2-yl)-1H-1,2,4-triazol-3-yl)phenyl)-3-(3-(2-(1-methoxyethyl)-5-methylphenyl)-4-oxothiazolidin-2-ylidene)urea]	–	–	50 to 100%	50 to 100%	–
COC(C)c1ccc(C)cc1N1C(=O)CS/C1=N\C(=O)Nc1c(F)cc(-c2ncn(-c3ccc(OC(F)(F)F)cc3)n2)cc1F (stereo not shown) [Compound J81, (Z)-1-(2,6-Difluoro-4-(1-(4-(trifluoromethoxy)phenyl)-1H-1,2,4-triazol-3-yl)phenyl)-3-(3-(2-(1-methoxyethyl)-5-methylphenyl)-4-oxothiazolidin-2-ylidene)urea]	–	–	50 to 100%	50 to 100%	–
Cc1ccc(OCC(F)(F)F)c(N2C(=O)CS/C2=N\C(=O)Nc2ccc(-c3ncn(-c4ccc(OC(F)(F)F)cc4)n3)cc2C)c1 [Compound J55, (Z)-1-(3-(5-Methyl-2-(2,2,2-trifluoroethoxy)phenyl)-4-oxothiazolidin-2-ylidene)-3-(2-methyl-4-(1-(4-(trifluoromethoxy)phenyl)-1H-1,2,4-triazol-3-yl)phenyl)urea]	–	–	50 to 100%	50 to 100%	–
CCNc1ccc(C(C)C)c(N2C(=O)CS/C2=N\C(=O)Nc2ccc(-c3ncn(-c4ccc(OC(F)(F)F)cc4)n3)cc2F)c1 [Compound J106, (Z)-1-(3-(5-(Ethylamino)-2-isopropylphenyl)-4-oxothiazolidin-2-ylidene)-3-(2-fluoro-4-(1-(4-(trifluoromethoxy)phenyl)-1H-1,2,4-triazol-3-yl)phenyl)urea]	–	–	50 to 100%	50 to 100%	–
COC(c1ccc(C)cc1N1C(=O)CS/C1=N\C(=O)Nc1ccc(-n2cnc(-c3ccc(OC(F)(F)F)cc3)c2)cc1Cl)C(F)(F)F (stereo not shown) [Compound J791, (Z)-1-(2-Chloro-4-(4-(4-(trifluoromethoxy)phenyl)-1H-imidazol-1-yl)phenyl)-3-(3-(5-methyl-2-(2,2,2-trifluoro-1-methoxyethyl)phenyl)-4-oxothiazolidin-2-ylidene)urea]	–	–	–	–	mortality at 50 µg/cm2 ([1]; Trichoplusia ni, Table ABC, species CL, 128-well diet tray assay, second instar larvae, read-out: CL rating (% control or mortality class)): 50 to 100%; BAW rating (% control or mortality class) ([2]; Table ABC, species BAW, 128-well diet tray assay, second instar larvae): A (50-100)
Cc1cccc(N2C(=O)CS/C2=N\C(=O)Nc2ccc(-n3cnc(-c4ccc(OC(F)(F)F)cc4)n3)cc2F)c1COCC(F)(F)F [Compound J703, (Z)-1-(2-Fluoro-4-(3-(4-(trifluoromethoxy)phenyl)-1H-1,2,4-triazol-1-yl)phenyl)-3-(3-(3-methyl-2-((2,2,2-trifluoroethoxy)methyl)phenyl)-4-oxothiazolidin-2-ylidene)urea]	50 to 100%	50 to 100%	–	–	–
O=C(/N=C1\SCC(=O)N1c1cc(F)ccc1COCC(F)(F)F)Nc1ccc(-n2cnc(-c3ccc(C(F)(F)F)cc3)n2)cc1F [Compound J699, (Z)-1-(3-(5-Fluoro-2-((2,2,2-trifluoroethoxy)methyl)phenyl)-4-oxothiazolidin-2-ylidene)-3-(2-fluoro-4-(3-(4-(trifluoromethyl)phenyl)-1H-1,2,4-triazol-1-yl)phenyl)urea]	50 to 100%	50 to 100%	–	–	–
CCCc1ccc(C)cc1N1C(=O)CS/C1=N\C(=O)Nc1ccc(-c2ncn(-c3ccc(C(F)(F)F)cn3)n2)cc1F [Compound J454]	–	–	–	–	CL rating ([1]; Table ABC, species CL): A (50-100); BAW rating ([2]; Table ABC, species BAW): A (50-100)
Cc1ccc(COCCC(F)(F)F)c(N2C(=O)CS/C2=N\C(=O)Nc2ccc(-c3ncn(-c4ccccc4)n3)cc2C)c1 [Compound J781, (Z)-1-(3-(5-Methyl-2-((3,3,3-trifluoropropoxy)methyl)phenyl)-4-oxothiazolidin-2-ylidene)-3-(2-methyl-4-(1-phenyl-1H-1,2,4-triazol-3-yl)phenyl)urea]	50 to 100%	50 to 100%	–	–	–
COc1ccc(-n2cnc(-c3ccc(NC(=O)/N=C4\SCC(=O)N4c4cc(C)ccc4COCC(F)F)c(F)c3)n2)cc1 [Compound J757, (Z)-1-(3-(2-((2,2-Difluoroethoxy)methyl)-5-methylphenyl)-4-oxothiazolidin-2-ylidene)-3-(2-fluoro-4-(1-(4-methoxyphenyl)-1H-1,2,4-triazol-3-yl)phenyl)urea]	50 to 100%	50 to 100%	–	–	–
COCc1ccc(C)cc1N1C(=O)CS/C1=N\C(=O)Nc1ccc(-c2cn(-c3ccc(S(F)(F)(F)(F)F)cc3)cn2)cc1F [Compound J592, (Z)-1-(2-Fluoro-4-(1-(4-(pentafluoro-λ^6-sulfaneyl)phenyl)-1H-imidazol-4-yl)phenyl)-3-(3-(2-(methoxymethyl)-5-methylphenyl)-4-oxothiazolidin-2-ylidene)urea]	50 to 100%	50 to 100%	–	–	–
CN(C)c1cccc(N2C(=O)CS/C2=N\C(=O)Nc2ccc(-c3ncn(-c4ccc(OC(F)(F)F)cc4)n3)cc2F)c1 [Compound J84, (Z)-1-(3-(3-(Dimethylamino)phenyl)-4-oxothiazolidin-2-ylidene)-3-(2-fluoro-4-(1-(4-(trifluoromethoxy)phenyl)-1H-1,2,4-triazol-3-yl)phenyl)urea]	–	–	50 to 100%	50 to 100%	–
(Z)-1-(3-(5-ethoxy-2-((2,2,2-trifluoroethoxy)methyl)phenyl)-4-oxothiazolidin-2-ylidene)-3-(2-methyl-4-(1-(4-(trifluoromethoxy)phenyl))-1H-1,2,4-triazol-3-yl)phenyl)urea [Compound J575]	–	–	–	–	CL rating ([1]; Table ABC, species CL): A (50-100); BAW rating ([2]; Table ABC, species BAW): A (50-100)
CC(C)c1ccc(N(C)C)cc1N1C(=O)CS/C1=N\C(=O)Nc1ccc(-c2nnc(-c3ccc(OC(F)(F)F)cc3)o2)cc1F [Compound J431, (Z)-1-(3-(5-(Dimethylamino)-2-isopropylphenyl)-4-oxothiazolidin-2-ylidene)-3-(2-fluoro-4-(5-(4-(trifluoromethoxy)phenyl)-1,3,4-oxadiazol-2-yl)phenyl)urea]	50 to 100%	50 to 100%	–	–	–
COc1ccc(COCC(F)(F)F)c(N2C(=O)CS/C2=N\C(=O)Nc2ccc(-c3ncn(-c4ccc(C(F)(F)F)cc4)n3)cc2C)c1 [Compound J580]	–	–	–	–	CL rating ([1]; Table ABC, species CL): A (50-100); BAW rating ([2]; Table ABC, species BAW): A (50-100)
CCCc1ccc(N(C)C)cc1N1C(=O)CS/C1=N\C(=O)Nc1ccc(-c2ncn(-c3ccc(OC(F)(F)F)cc3)n2)cc1C#N [Compound J247, (Z)-1-(2-Cyano-4-(1-(4-(trifluoromethoxy)phenyl)-1H-1,2,4-triazol-3-yl)phenyl)-3-(3-(5-(dimethylamino)-2-propylphenyl)-4-oxothiazolidin-2-ylidene)urea]	–	–	50 to 100%	50 to 100%	–
Cc1ccc(C(C)C)c(N2C(=O)CS/C2=N\C(=O)Nc2ccc(-n3cnc(-c4ccc(OC(F)(F)F)cc4)n3)cc2Cl)c1 [Compound J728, (Z)-1-(2-Chloro-4-(3-(4-(trifluoromethoxy)phenyl)-1H-1,2,4-triazol-1-yl)phenyl)-3-(3-(2-isopropyl-5-methylphenyl)-4-oxothiazolidin-2-ylidene)urea]	50 to 100%	50 to 100%	–	–	–
Cc1ccc(COCc2ccccc2F)c(N2C(=O)CS/C2=N\C(=O)Nc2ccc(-c3ncn(-c4ccc(OC(F)(F)F)cc4)n3)cc2F)c1 [Compound J635, (Z)-1-(2-Fluoro-4-(1-(4-(trifluoromethoxy)phenyl)-1H-1,2,4-triazol-3-yl)phenyl)-3-(3-(2-(((2-fluorobenzyl)oxy)methyl)-5-methylphenyl)-4-oxothiazolidin-2-ylidene)urea]	50 to 100%	50 to 100%	–	–	–
COC(C)c1ccc(C)cc1N1C(=O)CS/C1=N\C(=O)Nc1ccc(-c2ncn(-c3ccc(C(F)F)cn3)n2)cc1F (stereo not shown) [Compound J341]	–	–	–	–	CL (Biological Results, rating) ([1]; Cabbage Looper (Trichoplusia ni), C = Not Tested): A (50-100); BAW (Biological Results, rating) ([2]; Beet Armyworm (Spodoptera exigua), C = Not Tested): A (50-100)
CN(C)c1ccc(OCCC(F)(F)F)c(N2C(=O)CS/C2=N\C(=O)Nc2ccc(-c3ncn(-c4ccc(C(F)(F)F)cc4)n3)cc2F)c1 [Compound J184, (Z)-1-(3-(5-(Dimethylamino)-2-(3,3,3-trifluoropropoxy)phenyl)-4-oxothiazolidin-2-ylidene)-3-(2-fluoro-4-(1-(4-(trifluoromethyl)phenyl)-1H-1,2,4-triazol-3-yl)phenyl)urea]	–	–	50 to 100%	50 to 100%	–
